Test results: US7998954B2, “Pyrimidodiazepinone derivative” (Kyowa Hakko Kirin Co., Ltd., priority 2007, dated 2011)

system: Rats with chronic constriction nerve injury; assay: Analgesic effect in rats with chronic constriction nerve injury (von Frey filaments, 50% pain threshold); format: in vivo, rat; settings: oral, dose of 30 mg/kg or less, measured after 3 hours
Description: Analgesic Effect of Compounds in Rats with Chronic Constriction Nerve Injury
Rats with chronic constriction nerve injury were produced by partially modifying the method of Mosconi and Kruger et al. [Pain, 1996, Vol. 64, p. 37-57] with slight modification.
The sciatic nerve in the left posterior leg of male Crl:CD (SD) rats was exfoliated under pentobarbital anesthesia, and a polyethylene tube (trade name: Intramedic; size: PE-60; Becton Dickinson) having a length of 2 mm was wrapped over the site of exfoliation. On days 14 to 21 after the surgery, the rats were placed in an acrylic quadruple cage (width 900 mm×depth 210 mm×height 140 mm) with a wire mesh floor consisting 4 cages connected in a row. Pain evaluation was performed after at least 20 minutes to allow the rats to acclimate to the new environment.
In pain evaluation, von Frey filaments (trade name: Touch Test Sensory Evaluator; Model: 58011; Muromachi Kikai Co., Ltd.) were used. The results were calculated as a pain thresholds. That is, by using a von Frey filament of different stimulus intensity, stimulation was given to the plantar surface of the injured side of rats with chronic constriction nerve injury, and the stimulus intensity to cause paw withdrawal response was obtained. […] 441-462]. The 50% pain thresholds of normal rats were 10 to 12 g on average.
For the evaluation of test compounds, rats with 50% pain thresholds of less than 4 g were used. The test compounds were suspended in a 0.5% aqueous methyl cellulose solution, and orally administered at a volume of 5 mL/kg. After 3 hours, pain thresholds were measured using von Frey filaments.

| Compound | pain thresholds (50% paw withdrawal thresholds) |
| --- | --- |
| CCNc1ncc2c(n1)N1CCCC1CN(c1cccc(-c3ccnc(Cl)c3)c1)C2=O (stereo not shown) [Compound 16, 5-[3-(2-Chloropyridin-4-yl)phenyl]-9-ethylamino-1,2,3,3a,4,5-hexahydro-5,8,10,10b-tetraazabenzo[e]azulen-6-one] | significantly increased pain thresholds |
| CNc1ncc2c(n1)N1CCC[C@H]1CN(c1cccc(-c3nn(C)c(=O)o3)c1)C2=O [Compound 89, (S)-3-Methyl-5-[3-(9-methylamino-6-oxo-2,3,3a,4-tetrahydro-1H,6H-5,8,10,10b-tetraazabenzo[e]azulen-5-yl)phenyl]-1,3,4-oxadiazol-2(3H)-one] | significantly increased pain thresholds |
| CCNc1ncc2c(n1)N1CCC[C@H]1CN(c1cccc(-c3noc(C)n3)c1)C2=O [Compound 72, (S)-9-Ethylamino-5-[3-(5-methyl-1,2,4-oxadiazol-3-yl)phenyl]-1,2,3,3a,4,5-hexahydro-5,8,10,10b-tetraazabenzo[e]azulen-6-one] | significantly increased pain thresholds |
| CCNc1ncc2c(n1)N1CCCC1CN(c1cccc(-c3nnc(C)o3)c1)C2=O (stereo not shown) [Compound 20, 9-Ethylamino-5-[3-(5-methyl-[1,3,4]oxadiazol-2-yl)phenyl]-1,2,3,3a,4,5-hexahydro-5,8,10,10b-tetraazabenzo[e]azulen-6-one] | significantly increased pain thresholds |
| CCNc1ncc2c(n1)N1CCC[C@H]1CN(c1cncc(-c3nnc(C)o3)c1)C2=O [Compound 43, (S)-9-Ethylamino-5-[5-(5-methyl-1,3,4-oxadiazol-2-yl)pyridin-3-yl]-1,2,3,3a,4,5-hexahydro-5,8,10,10b-tetraazabenzo[e]azulen-6-one] | significantly increased pain thresholds |
| CCNc1ncc2c(n1)N1CCC[C@H]1CN(c1cccc(-c3nn(C)c(=O)o3)c1)C2=O [Compound 90, (S)-5-[3-(9-Ethylamino-6-oxo-2,3,3a,4-tetrahydro-1H,6H-5,8,10,10b-tetraazabenzo[e]azulen-5-yl)phenyl]-3-methyl-1,3,4-oxadiazol-2(3H)-one] | significantly increased pain thresholds |
| CNc1ncc2c(n1)N1CCC[C@H]1CN(c1cccc(-c3nnn(C)n3)c1)C2=O [Compound 137, (S)-5-[3-(2-Methyl-2H-tetrazol-5-yl)phenyl]-9-methylamino-1,2,3,3a,4,5-hexahydro-5,8,10,10b-tetraazabenzo[e]azulen-6-one] | significantly increased pain thresholds |
| CNc1ncc2c(n1)N1CCC[C@H]1CN(c1cccc(-c3noc(C)n3)c1)C2=O [Compound 74, (S)-5-[3-(5-Methyl-1,2,4-oxadiazol-3-yl)phenyl]-9-methylamino-1,2,3,3a,4,5-hexahydro-5,8,10,10b-tetraazabenzo[e]azulen-6-one] | significantly increased pain thresholds |

system: chronic dermatitis model with repeated hapten applications; assay: Effects on pruritus in chronic dermatitis model with repeated hapten (oxazolone) applications; format: in vivo; settings: 100 mg/kg oral, 1 hour before antigen application on day 16; BALB/c mice; ***P < 0.001, t-test vs control group
Description: Effects on Pruritus in Chronic Dermatitis Model with Repeated Hapten Applications
A chronic dermatitis model with repeated hapten applications was produced by partially modifying the method of Kitagaki et al. [Journal of Investigative Dermatology, 1995, Vol. 105, p. 749-755].
Oxazolone (Sigma-Aldrich) was used as hapten, and dissolved in acetone (Kanto Kagaku) to prepare a 0.5 w/v % oxazolone-acetone solution (antigen solution). BALB/c mice (6 weeks of age) were sensitized by a single application of the antigen solution (10 μL) to the shaved rostral back. […]
Itch response of the mice on day 16 was analyzed by partially modifying the method of Kuraishi et al. [European journal of phamacology, 1995, Vol. 275, p. […]
To allow the mice to acclimate to new environment, the mice were left in an acrylic observation cage (7.5×8×15 cm) for 1 hour. The mice were put back into the cage immediately after the application of the antigen solution to the rostral back, and the behavior of the mice was monitored unattended with an 8 mm video camera recorder. […] During the observation, scratching movements with the hind paws around the site of antigen solution application was counted. […] A series of these movements was counted as a single scratching movement.

| Compound | The number of scratching movements during 1 hr after the hapten applications |
| --- | --- |
| CCNc1ncc2c(n1)N1CCC[C@H]1CN(CC1CCN(C(=O)c3ccco3)CC1)C2=O [Compound 35, (S)-9-Ethylamino-5-[1-(furan-2-carbonyl)piperidin-4-yl]methyl-1,2,3,3a,4,5-hexahydro-5,8,10,10b-tetraazabenzo[e]azulen-6-one] | 84±33 counts |
| CCNc1ncc2c(n1)N1CCC[C@H]1CN(Cc1ccc(F)cc1F)C2=O [Compound 3, (S)-5-(2,4-Difluorobenzyl)-9-ethylamino-1,2,3,3a,4,5-hexahydro-5,8,10,10b-tetraazabenzo[e]azulen-6-one] | 225±37 counts |
